Tested on: MV-4-11 cells
Experiment: Gene expression microarray analysis (Affymetrix PrimeView) and GSEA
Assay type: cell-based, human
Set-up: RFU PODN (11730768_x_at) / Fold change /veh PODN (11730768_x_at) / RFU LINC00158 (11744669_a_at) / Fold change /veh LINC00158 (11744669_a_at) / RFU DUSP10 (11751237_a_at) / Fold change /veh DUSP10 (11751237_a_at) / RFU ID3 (11757404_x_at) / Fold change /veh ID3 (11757404_x_at) / RFU PLEKHG5 (11737974_s_at) / Fold change /veh PLEKHG5 (11737974_s_at) / RFU LRRC4B (11730491_at) / Fold change /veh LRRC4B (11730491_at) / RFU GIMAP4 (11747438_a_at) / Fold change /veh GIMAP4 (11747438_a_at) / RFU KRT8 (11758183_x_at) / Fold change /veh KRT8 (11758183_x_at) / RFU CNN1 (11734310_a_at) / Fold change /veh CNN1 (11734310_a_at) / RFU VPS37D (11726825_at) / Fold change /veh VPS37D (11726825_at) / RFU C10orf10 (11716522_x_at) / Fold change /veh C10orf10 (11716522_x_at) / RFU KIR2DL2 /// KIR2DL4 /// KIR2DL5A /// KIR2DL5B /// KIR2DS1 /// KIR2DS2 /// KIR2DS3 /// KIR2DS4 /// KIR3DL3 /// KIR3DL3 /// KIR3DS1 (11738374_at) / Fold change /veh KIR2DL2 /// KIR2DL4 /// KIR2DL5A /// KIR2DL5B /// KIR2DS1 /// KIR2DS2 /// KIR2DS3 /// KIR2DS4 /// KIR3DL3 /// KIR3DL3 /// KIR3DS1 (11738374_at) / RFU C1QL1 (11718748_at) / Fold change /veh C1QL1 (11718748_at) / RFU TMPRSS4 (11747572_a_at) / Fold change /veh TMPRSS4 (11747572_a_at) / RFU HAMP (11756126_x_at) / Fold change /veh HAMP (11756126_x_at) / RFU RNFT2 (11725882_a_at) / Fold change /veh RNFT2 (11725882_a_at) / RFU NR4A2 (11747474_a_at) / Fold change /veh NR4A2 (11747474_a_at) / RFU ABCC12 (11746883_a_at) / Fold change /veh ABCC12 (11746883_a_at) / RFU TMEM136 (11760407_x_at) / Fold change /veh TMEM136 (11760407_x_at) / RFU CLDN22 /// WWC2 (11732394_at) / Fold change /veh CLDN22 /// WWC2 (11732394_at) / RFU HLA-DPB1 (11760878_x_at) / Fold change /veh HLA-DPB1 (11760878_x_at) / RFU SPINT1 (11716480_a_at) / Fold change /veh SPINT1 (11716480_a_at) / RFU GAP43 (11754022_s_at) / Fold change /veh GAP43 (11754022_s_at) / RFU A4GNT (11735810_at) / Fold change /veh A4GNT (11735810_at) / RFU PRB3 (11715151_x_at) / Fold change /veh PRB3 (11715151_x_at) / RFU TUBB4B (11761932_at) / Fold change /veh TUBB4B (11761932_at) / RFU CAPN14 (11732068_a_at) / Fold change /veh CAPN14 (11732068_a_at) / RFU TMCC2 (11721928_a_at) / Fold change /veh TMCC2 (11721928_a_at) / RFU IRGQ (11745062_a_at) / Fold change /veh IRGQ (11745062_a_at) / RFU FAM174B (11720279_a_at) / Fold change /veh FAM174B (11720279_a_at) / RFU TMPRSS4 (11748680_a_at) / Fold change /veh TMPRSS4 (11748680_a_at) / RFU FAM212B (11763350_a_at) / Fold change /veh FAM212B (11763350_a_at) / RFU PLEKHG5 (11743358_a_at) / Fold change /veh PLEKHG5 (11743358_a_at) / RFU ZSCAN30 (11745921_a_at) / Fold change /veh ZSCAN30 (11745921_a_at) / RFU CMKLR1 (11741424_a_at) / Fold change /veh CMKLR1 (11741424_a_at) / RFU LOC101060620 /// MAPK8IP1 (11723275_at) / Fold change /veh LOC101060620 /// MAPK8IP1 (11723275_at) / RFU SPTSSB (11747773_x_at) / Fold change /veh SPTSSB (11747773_x_at) / RFU PRSS12 (11739890_at) / Fold change /veh PRSS12 (11739890_at) / RFU BIN1 (11741810_x_at) / Fold change /veh BIN1 (11741810_x_at) / RFU WNT11 (11732464_a_at) / Fold change /veh WNT11 (11732464_a_at) / RFU C10orf10 (11716521_a_at) / Fold change /veh C10orf10 (11716521_a_at) / RFU C5orf56 (11738089_at) / Fold change /veh C5orf56 (11738089_at) / RFU CYB561 (11721691_x_at) / Fold change /veh CYB561 (11721691_x_at) / RFU ANKRD19P (11752326_a_at) / Fold change /veh ANKRD19P (11752326_a_at) / RFU OR2T12 /// OR2T33 /// OR2T8 (11738714_s_at) / Fold change /veh OR2T12 /// OR2T33 /// OR2T8 (11738714_s_at) / RFU VCAN (11748164_a_at) / Fold change /veh VCAN (11748164_a_at) / RFU JSRP1 (11732532_at) / Fold change /veh JSRP1 (11732532_at) / RFU KRTAP10-11 (11738290_x_at) / Fold change /veh KRTAP10-11 (11738290_x_at) / RFU MYO3A (11730013_a_at) / Fold change /veh MYO3A (11730013_a_at) / RFU EBF3 (11725865_a_at) / Fold change /veh EBF3 (11725865_a_at) / RFU CAMK2N1 (11719241_x_at) / Fold change /veh CAMK2N1 (11719241_x_at) / RFU C5orf56 (11738088_a_at) / Fold change /veh C5orf56 (11738088_a_at) / RFU OLFML3 (11715873_a_at) / Fold change /veh OLFML3 (11715873_a_at) / RFU LOC100653217 /// NTM (11731650_a_at) / Fold change /veh LOC100653217 /// NTM (11731650_a_at) / RFU MAPK11 (11762145_a_at) / Fold change /veh MAPK11 (11762145_a_at) / RFU FIZ1 (11724087_x_at) / Fold change /veh FIZ1 (11724087_x_at) / RFU OASL (11726364_x_at) / Fold change /veh OASL (11726364_x_at) / RFU SOX15 (11748057_x_at) / Fold change /veh SOX15 (11748057_x_at) / RFU CD79A (11719716_a_at) / Fold change /veh CD79A (11719716_a_at) / RFU HIST1H1D (11736915_at) / Fold change /veh HIST1H1D (11736915_at) / RFU CASKIN2 (11723855_a_at) / Fold change /veh CASKIN2 (11723855_a_at) / RFU LOC730098 (11760151_x_at) / Fold change /veh LOC730098 (11760151_x_at) / RFU OR4N2 (11742367_at) / Fold change /veh OR4N2 (11742367_at) / RFU PRRT2 (11749266_a_at) / Fold change /veh PRRT2 (11749266_a_at) / RFU SNX32 (11753110_a_at) / Fold change /veh SNX32 (11753110_a_at) / RFU CDHR5 (11726645_a_at) / Fold change /veh CDHR5 (11726645_a_at) / RFU RCAN1 (11760418_a_at) / Fold change /veh RCAN1 (11760418_a_at) / RFU FAM167A (11723789_a_at) / Fold change /veh FAM167A (11723789_a_at) / RFU FAM26E (11764081_at) / Fold change /veh FAM26E (11764081_at) / RFU ISYNA1 (11749810_s_at) / Fold change /veh ISYNA1 (11749810_s_at) / RFU ACY1 (11761880_at) / Fold change /veh ACY1 (11761880_at) / RFU 11764098_at / Fold change /veh 11764098_at / RFU SAMD14 (11745864_x_at) / Fold change /veh SAMD14 (11745864_x_at) / RFU NPB (11741838_a_at) / Fold change /veh NPB (11741838_a_at) / RFU TMPRSS6 (11731388_a_at) / Fold change /veh TMPRSS6 (11731388_a_at) / RFU KRTAP10-2 (11738614_at) / Fold change /veh KRTAP10-2 (11738614_at) / RFU ARHGAP8 /// PRR5-ARHGAP8 (11727945_x_at) / Fold change /veh ARHGAP8 /// PRR5-ARHGAP8 (11727945_x_at) / RFU KRTAP5-7 /// NADSYN1 (11734609_at) / Fold change /veh KRTAP5-7 /// NADSYN1 (11734609_at) / RFU RASL12 (11751679_a_at) / Fold change /veh RASL12 (11751679_a_at) / RFU CDKN2B (11736163_a_at) / Fold change /veh CDKN2B (11736163_a_at) / RFU PRF1 (11729649_at) / Fold change /veh PRF1 (11729649_at) / RFU, ZNF638 /// ZNF638-IT1 / Fold change vs veh, ZNF638 /// ZNF638-IT1 / RFU, PANK3 / Fold change vs veh, PANK3 / RFU, SH3YL1 / Fold change vs veh, SH3YL1 / RFU, ZEB2 / Fold change vs veh, ZEB2 / RFU, NRIP1 / Fold change vs veh, NRIP1 / RFU, PTTG1IP / Fold change vs veh, PTTG1IP / RFU, CAPN2 / Fold change vs veh, CAPN2 / RFU, MED14 / Fold change vs veh, MED14 / RFU, SNORA58 / Fold change vs veh, SNORA58 / RFU, C1orf63 / Fold change vs veh, C1orf63 / RFU, LRRFIP1 / Fold change vs veh, LRRFIP1 / RFU, NDUFAF7 / Fold change vs veh, NDUFAF7 / RFU, SLC12A2 / Fold change vs veh, SLC12A2 / RFU, IBTK / Fold change vs veh, IBTK / RFU, ESF1 / Fold change vs veh, ESF1 / Fold change vs veh, TMEM50B / RFU, TAOK1 / Fold change vs veh, TAOK1 / RFU, ACBD3 / Fold change vs veh, ACBD3 / RFU, TMA16 / Fold change vs veh, TMA16 / RFU, RWDD3 / Fold change vs veh, RWDD3 / RFU, BCAT1 / Fold change vs veh, BCAT1 / RFU, EDEM3 / Fold change vs veh, EDEM3 / RFU, TMEM33 / Fold change vs veh, TMEM33 / RFU, WDR75 / Fold change vs veh, WDR75 / RFU, AHCTF1 / Fold change vs veh, AHCTF1 / RFU, TFRC / Fold change vs veh, TFRC / RFU, ZDHHC17 / Fold change vs veh, ZDHHC17 / RFU, NOM1 / Fold change vs veh, NOM1 / RFU, ARL8B / Fold change vs veh, ARL8B / RFU, ZBTB11 / Fold change vs veh, ZBTB11 / RFU, TAMM41 / Fold change vs veh, TAMM41 / RFU, KIAA1704 /// LOC100996395 / Fold change vs veh, KIAA1704 /// LOC100996395 / RFU, ING1 / Fold change vs veh, ING1 / RFU, TRMT61B / Fold change vs veh, TRMT61B / RFU, FUBP3 / Fold change vs veh, FUBP3 / RFU, TP53 / Fold change vs veh, TP53 / RFU, TNKS2 / Fold change vs veh, TNKS2 / RFU, ZFP14 / Fold change vs veh, ZFP14 / RFU, ACTR2 / Fold change vs veh, ACTR2 / RFU, PPP3R1 / Fold change vs veh, PPP3R1 / RFU, PIK3R1 / Fold change vs veh, PIK3R1 / RFU, HNRNPA1 / Fold change vs veh, HNRNPA1 / RFU, RNF170 / Fold change vs veh, RNF170 / RFU, ZNF28 / Fold change vs veh, ZNF28 / RFU, RNGTT / Fold change vs veh, RNGTT / RFU, OGT / Fold change vs veh, OGT / RFU, BRD1 / Fold change vs veh, BRD1 / RFU, MARS / Fold change vs veh, MARS / RFU, ZNF655 / Fold change vs veh, ZNF655 / RFU, FAHD1 / Fold change vs veh, FAHD1 / RFU, BDP1 / Fold change vs veh, BDP1 / RFU, LRRCC1 / Fold change vs veh, LRRCC1 / RFU, ARID1A / Fold change vs veh, ARID1A / RFU, ZNF146 / Fold change vs veh, ZNF146 / RFU, ZNF330 / Fold change vs veh, ZNF330 / RFU, GPN3 / Fold change vs veh, GPN3 / RFU, C9orf123 / Fold change vs veh, C9orf123 / RFU, N4BP2L2 / Fold change vs veh, N4BP2L2 / RFU, ARFIP1 / Fold change vs veh, ARFIP1 / RFU, FAM179B / Fold change vs veh, FAM179B / RFU, BCL10 / Fold change vs veh, BCL10 / RFU, UHRF1BP1L / Fold change vs veh, UHRF1BP1L / RFU, BET1 / Fold change vs veh, BET1 / RFU, CNOT2 / Fold change vs veh, CNOT2 / RFU, ZNF268 / Fold change vs veh, ZNF268 / Fold change vs veh, ZNF507 / RFU, DGCR2 / Fold change vs veh, DGCR2 / RFU, WDSUB1 / Fold change vs veh, WDSUB1 / Fold change vs veh, HSP90B1 /// MIR3652 / RFU, ADSS / Fold change vs veh, ADSS / RFU, GK / Fold change vs veh, GK / RFU, ZNF148 / Fold change vs veh, ZNF148 / RFU, TAF9 / Fold change vs veh, TAF9 / RFU, SLC1A5 / Fold change vs veh, SLC1A5 / RFU, SLMO2 / Fold change vs veh, SLMO2 / RFU, ABCC4 / Fold change vs veh, ABCC4 / RFU, LOC101060439 /// RAP1B / Fold change vs veh, LOC101060439 /// RAP1B / RFU, RFX7 / Fold change vs veh, RFX7 / RFU, GTPBP10 / Fold change vs veh, GTPBP10 / RFU, CNEP1R1 / Fold change vs veh, CNEP1R1 / RFU, BIVM-ERCC5 /// ERCC5 / Fold change vs veh, BIVM-ERCC5 /// ERCC5 / RFU, ILF3 / Fold change vs veh, ILF3 / RFU 11762660_at / Fold change /veh 11762660_at / RFU VCAN (11757783_s_at) / Fold change /veh VCAN (11757783_s_at) / RFU DDX43 (11728927_at) / Fold change /veh DDX43 (11728927_at) / RFU KRT8 (11758188_x_at) / Fold change /veh KRT8 (11758188_x_at) / RFU NKD1 (11759106_at) / Fold change /veh NKD1 (11759106_at) / RFU SRD5A1 (11742802_a_at) / Fold change /veh SRD5A1 (11742802_a_at) / RFU TPSAB1 /// TPSB2 (11721975_s_at) / Fold change /veh TPSAB1 /// TPSB2 (11721975_s_at) / RFU GSTM3 (11746129_a_at) / Fold change /veh GSTM3 (11746129_a_at) / RFU IL23R (11737362_x_at) / Fold change /veh IL23R (11737362_x_at) / RFU TMEM51 (11727254_a_at) / Fold change /veh TMEM51 (11727254_a_at) / RFU PIWIL2 (11732686_x_at) / Fold change /veh PIWIL2 (11732686_x_at) / RFU ORM1 (11744905_x_at) / Fold change /veh ORM1 (11744905_x_at) / RFU CCDC152 (11743942_at) / Fold change /veh CCDC152 (11743942_at) / RFU ECM1 (11717891_a_at) / Fold change /veh ECM1 (11717891_a_at) / RFU IL23R (11748794_a_at) / Fold change /veh IL23R (11748794_a_at) / RFU TNFAIP8L3 (11732012_x_at) / Fold change /veh TNFAIP8L3 (11732012_x_at) / RFU MBOAT4 (11741988_at) / Fold change /veh MBOAT4 (11741988_at) / RFU 11764193_at / Fold change /veh 11764193_at / RFU TMEM53 (11763286_at) / Fold change /veh TMEM53 (11763286_at) / RFU MAGEB2 (11727129_at) / Fold change /veh MAGEB2 (11727129_at) / RFU TMEM200A (11744735_a_at) / Fold change /veh TMEM200A (11744735_a_at) / RFU CCDC152 (11751479_a_at) / Fold change /veh CCDC152 (11751479_a_at) / RFU FAM211A (11726209_a_at) / Fold change /veh FAM211A (11726209_a_at) / RFU RGS16 (11746705_a_at) / Fold change /veh RGS16 (11746705_a_at) / RFU VCAN (11755009_s_at) / Fold change /veh VCAN (11755009_s_at) / RFU RHOB (11743442_s_at) / Fold change /veh RHOB (11743442_s_at) / RFU RGS16 (11720943_a_at) / Fold change /veh RGS16 (11720943_a_at) / RFU RGS16 (11720944_at) / Fold change /veh RGS16 (11720944_at) / RFU, VPS4B / Fold change vs veh, VPS4B / RFU, CREB1 / Fold change vs veh, CREB1 / RFU, DNAJC13 / Fold change vs veh, DNAJC13 / RFU, GNAQ / Fold change vs veh, GNAQ / RFU, CDK5R1 / Fold change vs veh, CDK5R1 / RFU, ZRANB3 / Fold change vs veh, ZRANB3 / RFU, CUL4A / Fold change vs veh, CUL4A / RFU, CCNY / Fold change vs veh, CCNY / RFU, UFL1 / Fold change vs veh, UFL1 / RFU, COG3 / Fold change vs veh, COG3 / RFU, DIAPH2 / Fold change vs veh, DIAPH2 / RFU, SKA2 / Fold change vs veh, SKA2 / RFU, AFF3 / Fold change vs veh, AFF3 / RFU, LMF1 / Fold change vs veh, LMF1 / RFU, IPO11 / Fold change vs veh, IPO11 / RFU, DFFB / Fold change vs veh, DFFB / RFU, FOXP1 / Fold change vs veh, FOXP1 / RFU, CARD8 / Fold change vs veh, CARD8 / RFU, STRN3 / Fold change vs veh, STRN3 / RFU, ADK / Fold change vs veh, ADK / RFU, RASSF2 / Fold change vs veh, RASSF2 / RFU, WIPF1 / Fold change vs veh, WIPF1 / RFU, LARP1B / Fold change vs veh, LARP1B / RFU, RASA1 / Fold change vs veh, RASA1 / RFU, RB1 / Fold change vs veh, RB1 / RFU, PPFIA1 / Fold change vs veh, PPFIA1 / RFU, MAT2A / Fold change vs veh, MAT2A / RFU, CCT5 / Fold change vs veh, CCT5 / RFU, WDR92 / Fold change vs veh, WDR92 / RFU, CUX1 / Fold change vs veh, CUX1 / RFU, TTC7A / Fold change vs veh, TTC7A / RFU, TMEM135 / Fold change vs veh, TMEM135 / RFU, DEPTOR / Fold change vs veh, DEPTOR / RFU, CPM / Fold change vs veh, CPM / RFU, DNAJB6 / Fold change vs veh, DNAJB6 / RFU, CACNA2D3 / Fold change vs veh, CACNA2D3 / RFU, DTX4 / Fold change vs veh, DTX4 / RFU, TFCP2 / Fold change vs veh, TFCP2 / RFU, GMCL1 /// GMCL1P1 / Fold change vs veh, GMCL1 /// GMCL1P1 / RFU, AEBP2 / Fold change vs veh, AEBP2 / RFU, SNHG1 /// SNORD22 /// SNORD25 /// SNORD26 /// SNORD27 /// SNORD28 /// SNORD29 /// SNORD31 / Fold change vs veh, SNHG1 /// SNORD22 /// SNORD25 /// SNORD26 /// SNORD27 /// SNORD28 /// SNORD29 /// SNORD31 / Fold change (Aza/veh), C12orf56 (ProbeSet 11735607_a_at) / Fold change (ACY-1035/veh), C12orf56 (ProbeSet 11735607_a_at) / Fold change (Aza/veh), FGFR1OP (ProbeSet 11751329_s_at) / Fold change (ACY-1035/veh), FGFR1OP (ProbeSet 11751329_s_at) / Fold change (Aza/veh), VPS36 (ProbeSet 11739960_a_at) / Fold change (ACY-1035/veh), VPS36 (ProbeSet 11739960_a_at) / RFU SYPL1 (11715823_x_at) / Fold change /veh SYPL1 (11715823_x_at) / RFU IGFBP7 (11715501_s_at) / Fold change /veh IGFBP7 (11715501_s_at) / RFU REEP3 (11722064_at) / Fold change /veh REEP3 (11722064_at) / RFU IGLL1 (11728026_x_at) / Fold change /veh IGLL1 (11728026_x_at): dose or concentration left out as unconfirmed
Details: MV-4-11 cells, 48 hours

Nc1ccc(-c2cccs2)cc1NC(=O)c1ccc2c(c1)cc(C1CC1)n2CCN1CCOCC1 [ACY-1035]
Fold change /veh LOC100653217 /// NTM (11731650_a_at): 0.99

— paper PMC5218480 (PLoS ONE, 2017)
